Tests used:
DENV [1] = experiment: Hematocrit analysis in DENV-infected WT mice; type: in vivo; conditions: i.p. 1×10^6 pfu DENV, 1 day after infection, versus uninfected baseline
Description: (§1) Serum was obtained from uninfected mice, DENV-infected and untreated mice, and mice that received MC-stabilizing or MC-product targeting treatments 24 hr after infection. Error bars represent the SEM of values obtained from individual animals n≥3.
To support the observation of increased dye leakage, hematocrit analysis was also performed using blood samples from mice. This test is one that is used in some cases to diagnose DENV pathology clinically by measuring the packed red blood cell volume from the blood and, therefore, it is a measure of plasma loss (see, e.g., Special Programme for Research and Training in Tropical Diseases, WHO Dengue: guidelines for diagnosis, treatment, prevention, and control. (2009) New ed. Geneva:TDR:World Health Organization). […] These findings cumulatively point to a pivotal role for MCs in promoting DENV-induced increased in vascular permeability.
Due to the contributions of MCs to many pathological inflammatory disorders, there are a number of available drugs that target MCs or products that they produce after activation. […] This hypothesis was tested by blocking DENV induced vascular leakage using a panel of such drugs. […] Drugs were administered once, 30 minutes after i.p. instillation of 1×106 DENV and vascular leakage assessed 1 day after infection.

DENV [2] = experiment: Evans Blue perfusion model of DENV-induced vascular leakage in WT mice; type: in vivo; conditions: i.p. 1×10^6 pfu DENV, 1 day after infection, versus uninfected baseline
Description: Uninfected mice, or mice infected with 1×10^6 pfu of DENV were injected with 100 μL of 5% Evans Blue dye 30 minutes prior to euthanasia. […] This contrast is particularly striking in the liver, a Dengue-target organ.
as §1
As expected, Sash mice, which are MC-deficient model (see, e.g., Grimbaldestron, M. A. et al. (2005) Am. J. Pathol. 167:835-848), have undetectable serum levels of MCPT1 as baseline, as do uninfected congenic wild-type (WT) controls (FIG. 2A). To examine vascular leakage, mice infected with DENV were injected by tail vein with the tracking dye, Evans Blue, 30 minutes prior to euthanasia at a 24 hr time point.
Using this Evans Blue perfusion model, the extent of vascular leakage induced in 24 hr after i.p. instillation of 1×10^6 plaque-forming units (pfu) of DENV in WT and Sash mice was determined. […]
Due to the contributions of MCs to many pathological inflammatory disorders, there are a number of available drugs that target MCs or products that they produce after activation. […] Drugs were administered once, 30 minutes after i.p. instillation of 1×106 DENV and vascular leakage assessed 1 day after infection.

**Q.** For CN1CCC(=C2c3ccccc3CC(=O)c3sccc32)CC1 [ketotifen], which “hematocrit values compared to baseline levels” value (DENV [1]) is on record?
**A.** not statistically different from baseline levels

**Q.** What about the “levels of tissue dye detection compared to baseline levels” value (DENV [2]) of the same molecule?
**A.** not statistically different from baseline levels
